Test results as given in PMC6212438, “Vapor detection and discrimination with a panel of odorant receptors” (Nature Communications, 2018).

Molecular target: T1, Olfr1484 (Mus musculus, UniProt Q8VEU6)
T1 construct: gene Or5b122; full ORF with N-terminal Rho-tag (first 20 residues of human rhodopsin), Hana3A cells, co-expressed RTP1S
T1 sequence (Q8VEU6 1-315): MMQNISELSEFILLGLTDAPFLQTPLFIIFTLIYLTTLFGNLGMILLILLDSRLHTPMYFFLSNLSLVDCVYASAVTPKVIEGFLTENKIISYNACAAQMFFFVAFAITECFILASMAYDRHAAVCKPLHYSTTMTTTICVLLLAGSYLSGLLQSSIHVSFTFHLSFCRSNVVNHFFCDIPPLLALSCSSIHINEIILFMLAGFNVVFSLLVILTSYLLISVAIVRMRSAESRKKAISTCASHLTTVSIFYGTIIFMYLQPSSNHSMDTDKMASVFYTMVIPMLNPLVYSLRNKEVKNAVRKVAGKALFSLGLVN
Assay: GloSensor cAMP luminescence in Hana3A cells
Assay type: cell-based
Conditions: agonist; vapor-phase stimulation, odorant diluted in mineral oil

O=C1CCCCC1 [cyclohexanone]
GloSensor cAMP luminescence in Hana3A cells: Olfr1484 to cyclohexanone (CH)
